Data on 20 molecules can be found in ChEMBL document CHEMBL5506023, “Design, Synthesis, and Evaluation of Dihydropyrimidine Derivatives as Selective PDE1 Inhibitors for the Treatment of Liver Fibrosis” (J Med Chem, 2024).

Active and inactive are the calls of the source. No cut-off for these calls is given here.

Series [1] addresses T1, Dual specificity calcium/calmodulin-dependent 3',5'-cyclic nucleotide phosphodiesterase 1C (Homo sapiens, UniProt Q14123). As to the kind of experiment: Inhibition of PDE1C2 (147 to 531 residues) (unknown origin) using 3H-cGMP as substrate incubated for 15 mins by liquid scintillation counter analysis.
Series [2] in a line: Half life in rat liver microsomes at 1.5 uM. The class given is ADME, Microsome.
Series [3] has as its target T1, Dual specificity calcium/calmodulin-dependent 3',5'-cyclic nucleotide phosphodiesterase 1C. Description: Inhibition of PDE1C2 (147 to 531 residues) (unknown origin) using 3H-cGMP as substrate at 8000 nM incubated for 15 mins by liquid scintillation counter analysis relative to control.
Series [4] has as its system Rattus norvegicus. As to the kind of experiment: Antifibrotic activity against bile duct ligation induced Sprague-Dawley rat liver fibrosis model assessed as downregulation of collagen I expression in liver at 2.5 mg/kg,ip administrated once daily for 21 days by Western blotting analysis. Format: functional, organism-based. The settings on record: time 21.0 day. (A western blot detects proteins with antibodies after separation by electrophoresis.)

Series [5] relates to Rattus norvegicus. Description: Antifibrotic activity against bile duct ligation induced Sprague-Dawley rat liver fibrosis model assessed as reduction in liver damage at 2.5 mg/kg,ip administrated once daily for 21 days by hematoxylin and eosin staining based analysis. The class given is functional, organism-based. The settings on record: time 21.0 day.
For series [6], the system named is Rattus norvegicus. As to the kind of experiment: Antifibrotic activity against bile duct ligation induced Sprague-Dawley rat liver fibrosis model assessed as reduction in AST level at 2.5 mg/kg,ip administrated once daily for 21 days. The settings on record: time 21.0 day. The class given is functional, organism-based.
Series [7] deals with Rattus norvegicus. Description: Antifibrotic activity against bile duct ligation induced Sprague-Dawley rat liver fibrosis model assessed as reduction in collagen deposition at 2.5 mg/kg,ip administrated once daily for 21 days by Masson's trichome staining based analysis. Format: functional, organism-based. The settings on record: time 21.0 day.
Series [8] relates to Rattus norvegicus. As to the kind of experiment: Antifibrotic activity against bile duct ligation induced Sprague-Dawley rat liver fibrosis model assessed as reduction in ALT level at 2.5 mg/kg,ip administrated once daily for 21 days. The class given is functional, organism-based. The settings on record: time 21.0 day.
Series [9] has as its system Rattus norvegicus. As to the kind of experiment: Antifibrotic activity against bile duct ligation induced Sprague-Dawley rat liver fibrosis model assessed as downregulation of alpha-SMA expression in liver at 2.5 mg/kg,ip administrated once daily for 21 days by Western blotting analysis. The settings on record: time 21.0 day. The class given is functional, organism-based.

For series [10], the system named is Rattus norvegicus. As to the kind of experiment: Antifibrotic activity against bile duct ligation induced Sprague-Dawley rat liver fibrosis model assessed as reduction in fibrotic lesion at 2.5 mg/kg,ip administrated once daily for 21 days by hematoxylin and eosin staining based analysis. The class given is functional, organism-based. The settings on record: time 21.0 day.

For series [11], the system named is Rattus norvegicus. Description: Antifibrotic activity against bile duct ligation induced Sprague-Dawley rat liver fibrosis model assessed as reduction in alpha-smooth muscle actin level in liver at 2.5 mg/kg,ip administrated once daily for 21 days by immunofluorescence staining based analysis. Format: functional, organism-based. The settings on record: time 21.0 day.

For series [12], the system named is Rattus norvegicus. As to the kind of experiment: Antifibrotic activity against bile duct ligation induced Sprague-Dawley rat liver fibrosis model assessed as increase in cAMP level in liver at 2.5 mg/kg,ip administrated once daily for 21 days by ELISA. The class given is functional, organism-based. The settings on record: time 21.0 day. (Cyclic AMP is a second messenger, typically raised through Gs and lowered through Gi signalling.)

Series [13] has as its system Rattus norvegicus. Description: Antifibrotic activity against bile duct ligation induced Sprague-Dawley rat liver fibrosis model assessed as increase in cGMP level in liver at 2.5 mg/kg,ip administrated once daily for 21 days by ELISA. The class given is functional, organism-based. The settings on record: time 21.0 day. (In general: ELISA stands for enzyme-linked immunosorbent assay.)

Series [14] has as its system Rattus norvegicus. Description: Antifibrotic activity against bile duct ligation induced Sprague-Dawley rat liver fibrosis model assessed as reduction in total bile acid level at 2.5 mg/kg,ip administrated once daily for 21 days. The settings on record: time 21.0 day. The class given is functional, organism-based.

T1 sequence (Q14123 whole entry, the tested form may be a part): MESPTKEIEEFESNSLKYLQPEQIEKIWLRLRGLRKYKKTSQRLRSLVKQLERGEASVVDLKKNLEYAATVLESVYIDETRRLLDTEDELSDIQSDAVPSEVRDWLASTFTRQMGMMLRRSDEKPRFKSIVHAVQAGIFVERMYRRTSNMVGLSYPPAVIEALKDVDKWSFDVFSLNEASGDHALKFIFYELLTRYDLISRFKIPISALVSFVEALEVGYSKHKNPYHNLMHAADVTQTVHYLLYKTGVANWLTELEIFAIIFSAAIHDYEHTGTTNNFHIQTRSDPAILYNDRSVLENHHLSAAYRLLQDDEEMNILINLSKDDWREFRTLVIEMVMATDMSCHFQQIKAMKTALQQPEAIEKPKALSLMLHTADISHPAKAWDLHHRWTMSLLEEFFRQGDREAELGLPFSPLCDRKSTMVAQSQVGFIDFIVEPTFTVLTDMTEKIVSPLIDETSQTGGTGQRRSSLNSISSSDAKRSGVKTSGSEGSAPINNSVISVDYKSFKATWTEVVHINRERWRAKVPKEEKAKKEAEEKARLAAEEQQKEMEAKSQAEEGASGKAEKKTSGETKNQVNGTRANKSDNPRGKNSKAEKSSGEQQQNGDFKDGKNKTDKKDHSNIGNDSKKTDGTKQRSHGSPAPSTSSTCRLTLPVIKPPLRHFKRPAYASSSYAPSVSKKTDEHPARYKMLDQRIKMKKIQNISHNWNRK

One may read the IC50 as the concentration that gives 50% inhibition. For `CC1=C(C(=O)OCC2CCCCC2)C(c2cccc(OCC3CC3)c2)N(C(=O)SCc2ccccc2)C(=O)N1` (stereo unspecified), in series [1], the concentration for half-maximal inhibition (IC50) was 42 nM.

Usually half-life stands for the time in which the quantity being followed falls by half. A higher half-life goes with slow loss. Consider `COc1ccc(C2C(C(=O)OCC3CCCCC3)=C(C)NC(=O)N2C(=O)OCC2CCCCC2)cc1OC` (stereo unspecified), for which the concentration for half-maximal inhibition (IC50) in [1] was 5.9 nM. The molecule also showed a half-life at 1.5 µM in [2] of 2.1 min.

Consider `CC1=C(C(=O)OCC2CCCCC2)C(c2ccc(OC(F)F)c(OCC3CC3)c2)N(C(=S)Oc2ccccc2)C(=O)N1` (stereo unspecified), for which the IC50 in series [1] amounted to 5.8 nM. The molecule also registered a half-life at 1.5 µM in series [2] of 6.1 min. `CC1=C(C(=O)OCC2CCCCC2)C(c2ccc(Cl)nc2)N(C(=O)OCC2CCCCC2)C(=O)N1` (stereo unspecified): in [1], the concentration for half-maximal inhibition (IC50) was 195 nM. As for `CC1=C(C(=O)OCC2CCCCC2)C(c2ccc(OC(F)F)c(OCC3CC3)c2)N(C(=O)/C=C/c2ccccc2)C(=O)N1` (stereo unspecified), the IC50 in [1] was determined as 6060 nM. Broadly, the inhibition is the relative decrease from the control value, in per cent. Consider `CC1=C(C(=O)OCC2CCCCC2)C(c2ccc(OC(F)F)c(OCC3CC3)c2)N(/C=C/Cc2ccccc2)C(=O)N1` (stereo unspecified), for which the inhibition in series [3] was determined as 47%. For the molecule `COC(=O)C1=C(C)NC(=O)N(C(=O)OCC2CCCCC2)C1c1ccc(OC(F)F)c(OCC2CC2)c1` (stereo unspecified), in [1], the concentration for half-maximal inhibition (IC50) was 37 nM. With `COc1ccc(C2C(C(=O)OCC3CCCCC3)=C(C)NC(=O)N2C(=O)OCC2CCCCC2)cn1` (stereo unspecified), the half-maximal inhibitory concentration (IC50) in series [1] came to 51 nM. Still for that read-out and setting: the result for `COC(=O)C1=C(C)NC(=O)N(C(=O)SCc2ccccc2)C1c1ccc(OC(F)F)c(OCC2CC2)c1` (stereo unspecified) reads 103 nM. On to `COc1ccc(C2C(C(=O)OCc3ccccc3)=C(C)NC(=O)N2C(=O)OCc2ccccc2)cc1OC` (stereo unspecified), for which the IC50 in series [1] worked out at 63 nM.

Consider `CC1=C(C(=O)OCC2CCCCC2)C(c2ccc(OC(F)F)cc2)N(C(=O)SCc2ccccc2)C(=O)N1` (stereo unspecified), for which the outcome in the series with Rattus norvegicus [4], in the series with Rattus norvegicus [5], in the series on Rattus norvegicus [6], in the series with Rattus norvegicus [7], in the series on Rattus norvegicus [8] and in the series on Rattus norvegicus [9] was Active. Besides, the outcome with Rattus norvegicus [10], with Rattus norvegicus [11], in the series with Rattus norvegicus [12] and in the series on Rattus norvegicus [14] was Active. For the same molecule, the IC50 in series [1] was 21 nM. In addition, the half-life at 1.5 µM in series [2] is 7.1 min. Besides, the result in the series with Rattus norvegicus [13] was inactive. With `COc1ccc(C2NC(=O)NC(C)=C2C(=O)OCC2CCCCC2)cc1OC` (stereo unspecified), the IC50 in [1] turned out to be 3590 nM. Consider `COc1ccc(C2C(C(=O)OCC3CCCC3)=C(C)NC(=O)N2C(=O)OCC2CCCC2)cc1OC` (stereo unspecified), for which the half-maximal inhibitory concentration (IC50) in [1] is 42 nM. The same measure, in the same setting: to `CC(=O)N1C(=O)NC(C)=C(C(=O)OCC2CCCCC2)C1c1ccc(OC(F)F)c(OCC2CC2)c1` (stereo unspecified) belongs 2320 nM; to `CCNC(=O)N1C(=O)NC(C)=C(C(=O)OCC2CCCCC2)C1c1ccc(OC(F)F)c(OCC2CC2)c1` (stereo unspecified), 4690 nM. Consider `CC1=C(C(=O)OCC2CCCCC2)C(c2ccc(OC(F)F)c(OCC3CC3)c2)N(C(=O)OCC2CCCCC2)C(=O)N1` (stereo unspecified), for which the half-inhibitory concentration (IC50) in series [1] came out at 2.3 nM. In series [2], this molecule displayed a half-life at 1.5 µM of 3.68 min. For `CC1=C(C(=O)OCC2CCCCC2)C(c2ccc(OC(F)F)c(OC(F)F)c2)N(C(=O)OCC2CCCCC2)C(=O)N1` (stereo unspecified), in that order: 7.5 nM and 3.03 min. Take `CC1=C(C(=O)OCC2CCCCC2)C(c2cccc(Oc3ccccc3)c2)NC(=O)N1` (stereo unspecified): in series [1], the IC50 came out at 2940 nM. Consider `CC1=C(C(=O)OCC2CCCCC2)C(c2ccc(OC(F)F)c(OCC3CC3)c2)N(C)C(=O)N1` (stereo unspecified), for which the inhibition in series [3] turned out to be 45%.

`CC1=C(C(=O)OCC2CCCCC2)C(c2ccc(OC(F)F)c(OCC3CC3)c2)N(Cc2cccc(F)c2)C(=O)N1` (stereo unspecified): in series [3], the inhibition was 40%.
